What was measured:
[1] = target: T1, human α4β2 subtype of nicotinic acetylcholine receptors (Homo sapiens, UniProt P17787+P43681); assay: Agonist activities at human α4β2 subtype of nicotinic acetylcholine receptors expressed in Xenopus oocytes (membrane potential holding method); assay type: cell-based; details: 100 μM test compound, relative to 10 μM acetylcholine (100%)
T1 construct: expressed in transfected cells; host or cells: Xenopus laevis oocytes injected with hnACh-R α4 and β2 cRNA (pSP64 polyA)
T1 sequence (P43681 29-627 limits assumed): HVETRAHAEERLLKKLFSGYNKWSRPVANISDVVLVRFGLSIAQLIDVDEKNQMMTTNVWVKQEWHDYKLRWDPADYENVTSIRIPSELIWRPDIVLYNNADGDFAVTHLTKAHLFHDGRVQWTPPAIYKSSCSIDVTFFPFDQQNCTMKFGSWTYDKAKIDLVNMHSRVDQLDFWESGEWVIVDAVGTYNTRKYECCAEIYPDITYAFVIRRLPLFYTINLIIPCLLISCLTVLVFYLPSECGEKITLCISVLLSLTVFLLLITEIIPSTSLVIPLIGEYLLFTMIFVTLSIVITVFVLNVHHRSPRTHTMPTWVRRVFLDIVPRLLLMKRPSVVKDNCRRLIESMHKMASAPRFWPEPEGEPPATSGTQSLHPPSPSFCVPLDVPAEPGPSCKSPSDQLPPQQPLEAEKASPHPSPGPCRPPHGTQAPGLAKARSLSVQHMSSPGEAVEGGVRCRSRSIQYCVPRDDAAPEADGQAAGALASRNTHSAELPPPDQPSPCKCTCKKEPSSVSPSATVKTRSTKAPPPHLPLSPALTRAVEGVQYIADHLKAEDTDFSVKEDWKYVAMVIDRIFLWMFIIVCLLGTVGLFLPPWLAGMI
T1 sequence (P17787 26-502): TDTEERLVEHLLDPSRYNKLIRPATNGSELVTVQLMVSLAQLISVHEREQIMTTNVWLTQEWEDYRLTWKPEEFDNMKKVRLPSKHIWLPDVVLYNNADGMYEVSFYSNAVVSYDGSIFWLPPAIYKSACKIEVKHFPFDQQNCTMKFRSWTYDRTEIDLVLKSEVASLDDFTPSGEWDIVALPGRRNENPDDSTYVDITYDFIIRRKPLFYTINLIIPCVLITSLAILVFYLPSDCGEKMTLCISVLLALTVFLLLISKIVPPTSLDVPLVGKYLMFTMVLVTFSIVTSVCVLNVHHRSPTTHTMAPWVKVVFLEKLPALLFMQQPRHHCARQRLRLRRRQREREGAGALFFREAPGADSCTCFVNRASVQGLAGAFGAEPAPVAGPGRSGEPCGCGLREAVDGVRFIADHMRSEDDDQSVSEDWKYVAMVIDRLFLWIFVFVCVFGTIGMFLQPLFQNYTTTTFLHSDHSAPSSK
Procedure: The agonist effect in human α4β2 subtype of nicotinic acetylcholine receptors are examined by using human nicotinic acetylcholine receptors prepared in oocytes of Xenopus laevis, which is injected with cRNA from the corresponding cloning cDNA of human α4 and β2 subunits of nicotinic acetylcholine receptors, and to measure the expression of the electric response by adding the test compounds to perfusion solution by means of membrane potential holding method.
Agonist Activities at Human α4β2 Subtype of Nicotinic Acetylcholine Receptors
(1) Preparation of cRNA of Human α4β2 Subtype of Nicotinic Acetylcholine Receptors
The obtained hnACh-R α4 cDNA and hnACh-R β2 cDNA were inserted to the cRNA expression vector (pSP64 polyA) having SP6 RNA promoter to construct hnACh-R α4/pSP64 polyA and hnACh-R β2/pSP64 polyA, respectively. After cutting from expression vector by restriction enzyme (EcoRI), transcription was performed by affecting SP6 RNA polymerase in the presence of cap analogues to obtain hnACh-R α4 cRNA and hnACh-R β2 cRNA, respectively.
(2) Expression of Human α4β2 Subtype Nicotinic Acetylcholine Receptors in Xenopus Oocytes
Oocytes were purchased from Kitanihonseibutsukyohzai Co., Ltd., which were already enucleated from Xenopus laevis, and used in this experiment.
The oocytes were treated with collagenase (Sigma type I; 1 mg/ml) in calcium-free modified Birth's solution (88 mM of NaCl, 1 mM of KCl, 2.4 mM of NaHCO3, 0.82 mM of MgSO4, 15 mM of HEPES, pH 7.6) under gently stirring at room temperature for 90 minutes, and washed out the enzyme from the tissue. Then, oocytes were separated from ovarian follicle by tweezers, and isolated oocytes were placed in antibiotics containing modified Birth's solution (88 mM of NaCl, 1 mM of KCl, 2.4 mM of NaHCO3, 0.82 mM of MgSO4, 15 mM of HEPES, pH 7.6, and 0.1 v/v % of mixture solution containing of penicillin and streptomycin for incubation; Sigma Co.). […] In oocytes, heterogeneous quintuple [(α4)2(β2)3] was composed by translation of injected cRNAs, and ion channel receptors were constructed on cell membrane.
(3) Agonist Activities at Human α4β2 Subtype of Nicotinic Acetylcholine Receptors
The recordings of responses at human α4β2 subtype of nicotinic acetylcholine receptors by means of membrane potential holding method were performed as follow. […] Test compounds were added to the perfusion solution, and recorded the peak strength of induced inward current. In order to normalize the responses of test compounds, the responses with acetylcholine (Ach) were recorded before and after application of the test compounds. Generally in the oocytes just after isolated, the response of intrinsic muscarinic acetylcholine receptors, which is inward current caused by activation of calcium dependence chloride ion channels with increase of the intracellular calcium concentration by stimulation of receptors, is observed. […] Therefore, the responses observed in oocytes with injection of hnACh-R α4 cRNA and hnACh-R β2 cRNA, i.e., the inward current induced by the intracellular influx of sodium ion according to the stimulation of receptors, would be the freshly observed responses of human α4β2 subtype nicotinic acetylcholine receptors.

[2] = target: T2, α4β2 subtype of nicotinic acetylcholine receptors (Rattus norvegicus, UniProt P09483+P12390); assay: Binding assay at α4β2 subtype of nicotinic acetylcholine receptors ([3H]-cytisine, rat brain membrane)
T2 construct: examined using rat brain membrane obtained from whole homogenized brain; from tissue; host or cells: rat whole brain membranes (Fischer-344 male rats)
T2 sequence (P09483 31-630): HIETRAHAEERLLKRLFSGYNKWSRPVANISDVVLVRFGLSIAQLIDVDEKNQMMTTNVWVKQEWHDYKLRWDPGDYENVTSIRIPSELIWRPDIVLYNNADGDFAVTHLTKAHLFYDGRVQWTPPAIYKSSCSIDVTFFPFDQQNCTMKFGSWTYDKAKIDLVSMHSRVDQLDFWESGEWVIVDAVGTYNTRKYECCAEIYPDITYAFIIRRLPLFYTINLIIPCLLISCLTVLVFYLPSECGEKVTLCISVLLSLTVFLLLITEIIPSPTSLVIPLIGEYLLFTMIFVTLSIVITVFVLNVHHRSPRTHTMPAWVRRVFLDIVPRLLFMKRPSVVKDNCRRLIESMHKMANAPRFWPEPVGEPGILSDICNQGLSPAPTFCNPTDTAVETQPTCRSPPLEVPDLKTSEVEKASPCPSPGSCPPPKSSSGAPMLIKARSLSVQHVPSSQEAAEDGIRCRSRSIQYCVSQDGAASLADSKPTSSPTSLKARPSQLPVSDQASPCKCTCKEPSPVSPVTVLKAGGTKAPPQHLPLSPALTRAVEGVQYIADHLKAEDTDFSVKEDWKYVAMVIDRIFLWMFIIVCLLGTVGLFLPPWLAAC
T2 sequence (P12390 25-500): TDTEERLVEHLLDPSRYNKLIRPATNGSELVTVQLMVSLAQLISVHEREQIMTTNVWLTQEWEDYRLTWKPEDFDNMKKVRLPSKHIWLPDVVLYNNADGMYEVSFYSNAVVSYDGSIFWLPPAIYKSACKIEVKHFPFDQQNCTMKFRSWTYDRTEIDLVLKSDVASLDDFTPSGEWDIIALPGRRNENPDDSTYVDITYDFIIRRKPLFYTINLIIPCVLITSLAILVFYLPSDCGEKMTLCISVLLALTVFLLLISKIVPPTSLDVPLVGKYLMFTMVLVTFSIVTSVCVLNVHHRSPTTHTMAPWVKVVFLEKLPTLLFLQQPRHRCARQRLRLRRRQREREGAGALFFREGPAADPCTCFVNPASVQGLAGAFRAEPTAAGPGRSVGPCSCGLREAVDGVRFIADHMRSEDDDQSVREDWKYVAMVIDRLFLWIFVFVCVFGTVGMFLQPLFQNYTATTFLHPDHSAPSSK
Text: (§1) The methods for evaluating the binding capabilities of the compounds at nicotinic acetylcholine receptors are different by subtypes of receptors. The binding capabilities of the compounds at α4β2 nicotinic acetylcholine receptors are examined using rat brain membrane obtained from whole homogenized brain, and determining the inhibiting rate of the compounds against [^3H]-cytisine binding to said brain membrane. Furthermore, the binding capabilities of the compounds at α1β1γδ nicotinic acetylcholine receptors are examined using homogenized rat muscle, and determining the inhibiting rate of the compounds against [^3H]-α-bungarotoxin binding to said muscle homogenate.
Binding Assays at α4β2 Subtype of Nicotinic Acetylcholine Receptors
(1) Preparation of Rat Brain Membrane Containing α4β2 Subtype of Nicotinic Acetylcholine Receptors
Rats were housed in the breeding cage controlled of the room temperature at 23±1° C., and the humidity of 55±5% for 1 to 4 weeks. Rats (3 to 4 rats per a cage) were housed with lights on for 12 hours daily (from 7:00 to 19:00), and allowed free access to food and water.
Preparation of rat brain membrane containing α4β2 subtype of nicotinic acetylcholine receptors was performed as follow. That is, rat brains were isolated just after sacrificed by decapitation, washed with ice-cooled saline solution and then frozen at −80° C. with liquid nitrogen and stored till using. After thawing the frozen brain, the brain was homogenized in 10 volumes of ice-cooled buffer solution (50 mM of Tris-HCl, 120 mM of NaCl, 5 mM of KCl, 1 mM of MgCl2, 2 mM of CaCl2; pH 7.4; 4° C.) using homogenizer (HG30, Hitachi Kohki Ltd.) for 30 seconds, and the homogenate were centrifuged under 1,000×G for 10 minutes at 4° C. The resulting supernatant was separated and the pellet was homogenized again with half volume of aforementioned prior buffer solution and centrifuged under the same conditions. Combined supernatant was further centrifuged under 40,000×G for 20 minutes at 4° C. The pellet was suspended in buffer solution and used for binding assays at receptors.
(2) Experiments of α4β2 Subtype of Nicotinic Acetylcholine Receptors Binding
Suspensions of membrane pellets containing 400-600 μg of protein were added to test tubes containing test compounds and [^3H]-cytisine (2 nM) in a final volume of 200 μl and incubated for 75 minutes in ice-cooled bath. The samples were isolated by vacuum filtration onto Whatman GF/B filters, which were prerinsed with 0.5% polyethylenimine just prior to sample filtration, using Brandel multi manifold cell harvester. The filters were rapidly washed with buffer solution (3×1 ml). The filters were counted in 3 ml of clearsol I (Nacalai Tesque Inc.).
The analyses of the experimental results were conducted by using the Accufit Competition Program (Beckman Ltd.).

[3] = target: α1β1γδ subtype of nicotinic acetylcholine receptors (Rattus norvegicus, UniProt P18916+P25108+P25109+P25110); assay: biochemical; assay type: binding
α1β1γδ subtype of nicotinic acetylcholine receptors, sequence (P25109 24-501): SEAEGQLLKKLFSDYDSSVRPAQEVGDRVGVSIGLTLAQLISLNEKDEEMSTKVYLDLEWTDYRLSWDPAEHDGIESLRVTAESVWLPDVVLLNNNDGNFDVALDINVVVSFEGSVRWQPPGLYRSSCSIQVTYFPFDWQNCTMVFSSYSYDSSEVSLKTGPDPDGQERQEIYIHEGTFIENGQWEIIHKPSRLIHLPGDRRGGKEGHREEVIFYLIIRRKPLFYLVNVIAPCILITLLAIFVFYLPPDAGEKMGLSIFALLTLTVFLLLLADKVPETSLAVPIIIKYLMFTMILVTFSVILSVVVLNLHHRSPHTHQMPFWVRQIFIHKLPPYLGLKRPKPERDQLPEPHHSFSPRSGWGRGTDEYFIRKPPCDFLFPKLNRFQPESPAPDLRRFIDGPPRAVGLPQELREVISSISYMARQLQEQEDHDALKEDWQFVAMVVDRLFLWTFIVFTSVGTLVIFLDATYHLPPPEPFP
α1β1γδ subtype of nicotinic acetylcholine receptors, sequence (P25110 22-517): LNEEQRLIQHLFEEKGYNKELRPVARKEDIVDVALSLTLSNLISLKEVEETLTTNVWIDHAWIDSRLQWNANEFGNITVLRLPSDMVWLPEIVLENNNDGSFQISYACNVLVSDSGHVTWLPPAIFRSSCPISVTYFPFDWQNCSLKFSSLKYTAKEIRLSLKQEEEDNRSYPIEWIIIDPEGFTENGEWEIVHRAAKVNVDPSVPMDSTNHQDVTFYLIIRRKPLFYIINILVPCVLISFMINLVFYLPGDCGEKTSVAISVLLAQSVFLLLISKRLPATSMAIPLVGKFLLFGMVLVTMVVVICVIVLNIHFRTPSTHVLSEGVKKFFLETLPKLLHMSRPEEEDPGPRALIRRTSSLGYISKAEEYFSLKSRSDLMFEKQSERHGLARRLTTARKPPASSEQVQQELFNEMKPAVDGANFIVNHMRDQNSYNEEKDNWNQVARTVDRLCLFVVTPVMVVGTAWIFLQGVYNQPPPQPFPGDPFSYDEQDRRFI
α1β1γδ subtype of nicotinic acetylcholine receptors, sequence (P25108 21-457): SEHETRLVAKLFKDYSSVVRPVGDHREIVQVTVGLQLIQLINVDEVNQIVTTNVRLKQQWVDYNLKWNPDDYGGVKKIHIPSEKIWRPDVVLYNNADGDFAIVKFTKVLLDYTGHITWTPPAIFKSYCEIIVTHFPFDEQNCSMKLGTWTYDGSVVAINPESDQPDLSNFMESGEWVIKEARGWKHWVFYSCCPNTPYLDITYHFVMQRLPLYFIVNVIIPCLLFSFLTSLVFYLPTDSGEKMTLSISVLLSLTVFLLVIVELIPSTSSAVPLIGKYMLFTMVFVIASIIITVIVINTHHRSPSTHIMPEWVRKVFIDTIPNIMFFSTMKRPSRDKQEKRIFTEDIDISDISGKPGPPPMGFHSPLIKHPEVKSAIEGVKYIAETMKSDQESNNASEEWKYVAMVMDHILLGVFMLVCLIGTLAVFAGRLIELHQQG
Text: as §1
Binding Assays at α1β1γδ Subtype of Nicotinic Acetylcholine Receptors
The affinity of the compounds of the present invention to α1β1γδ subtype of nicotinic acetylcholine receptors was measured by the following method, which was modified method described by Garcha H. S., Thomas P., Spivak C.
(1) Preparation of Rat Skeletal Muscles Containing α1β1γδ Subtype of Nicotinic Acetylcholine Receptors
The substantially same animals described in the Biological Experiment 1 were used.
The isolation of α1β1γδ subtype of nicotinic acetylcholine receptors was performed as follow. That is, rat posterior skeletal muscles were isolated just after sacrificed by decapitation, washed with ice-cooled saline solution and then frozen at −80° C. with liquid nitrogen and stored till using. After thawing the frozen muscles, tissue was homogenized ([…]) with buffer solution [2.5 mM of sodium phosphate buffer (pH:7.2), 90 mM of NaCl, 2 mM of KCl, 1 mM of EDTA, 2 mM of benzamidine, 0.1 mM of benzethonium chloride, 0.1 mM of PMSF, 0.01% of sodium azide] in Waring blender (Waring blender 34BL97; WARING PRODUCTS DIVISION DYNAMICS CORPORATION OF AMERICA) for 60 seconds. The homogenate were centrifuged under 20,000×G for 60 minutes at 4° C. The supernatant was separated and the resulting pellet was added to the same buffer (1.5 ml/g wet weight), and homogenized under the same conditions. Triton X100 (2% w/v) was added and the mixture was stirred for 3 hours at 4° C. The centrifugation at 100,000×G for 60 minutes at 4° C. yielded the rat muscle extract as supernatant. This was stored at 4° C. for up to 4 weeks, and used for binding assays at receptors.
(2) Experiments of α1β1γδ Subtype of Nicotinic Acetylcholine Receptors Binding
Receptors binding experiments were performed as follow. That is, the extract of rat muscle containing 600-900 μg of protein was added to test tubes containing test compounds and incubated for 15 minutes at 37° C. Then, to this mixture was added 1 nM of [^3H]-α-bungarotoxin (α-Bgt) and further incubated for 2 hours. The samples were isolated by vacuum filtration onto Whatman GF/B filters, which were prerinsed with 0.5% polyethylenimine just prior to sample filtration, using Brandel multi manifold cell harvester. The filters were rapidly rinsed with washing solution (10 mM of KH2PO4, 150 mM of NaCl, pH 7.2, room temperature) (5×1 ml). The filters were counted in 3 ml of clearsol I (Nacalai Tesque Inc.). The determination of nonspecific binding was incubated in the presence of 1 μM α-Bgt. […] In the receptor binding experiments, said buffer solution was added for adjusting the final concentration of BSA to be 0.05%.
The analyses of the experimental results were conducted by the same way as described in the Biological Experiment 1.

## Cc1ccc(CC2=NCCN2)cn1 [Compound 45, 2-(6-methyl-3-pyridyl)methyl-2-imidazoline]
[1]
  Agonist activity: control % by response at 100 μM of the test compound: (12.0%)

## Clc1ccc(CN2C=NCCC2)cn1 [Compound 27, 1-(6-chloro-3-pyridyl)methyl-1,4,5,6-tetrahydropyrimidine]
[1]
  Agonist activity: control % by response at 100 μM of the test compound: (18.0%)
[2]
  Ki: 2 nM
[3]
  Ki: 45 µM

## Cc1ccc(CN2C=NCCC2)cn1 [Compound 57, 1-(6-methyl-3-pyridyl)methyl-1,4,5,6-tetrahydropyrimidine]
[1]
  Agonist activity: control % by response at 100 μM of the test compound: (9.1%)
[2]
  Ki: 12 nM
[3]
  Ki: 86 µM

## CC1=NCCN1CCc1ccc(Cl)nc1 [Compound 62, 1-[2-(6-chloro-3-pyridyl)ethyl]-2-methyl-2-imidazoline]
[1]
  Agonist activity: control % by response at 100 μM of the test compound: (9.6%)
[2]
  Ki: 70 nM
[3]
  Ki: 639 µM

## C1=NCCCN1Cc1cccnc1 [Compound 58, 1-(3-pyridyl)methyl-1,4,5,6-tetrahydropyrimidine]
[1]
  Agonist activity: control % by response at 100 μM of the test compound: (27.9%)
[2]
  Ki: 6.9 nM
[3]
  Ki: 32 µM
